Data reported in US20010053778A1, “Pharmaceutical compositions of glycogen phosphorylase inhibitors” (priority 2000, published 2001).

Columns and labels:
[1] = in vitro dissolution test, microcentrifuge method, PBS (Drug 1 compositions); format: physicochemical; conditions: for AUC90: area under aqueous concentration versus time curve after 90 minutes; for AUC90 / C1200 / Cmax, 90: PBS, dosage 2000 μg/mL; for C1200: concentration at 1200 minutes; for Cmax, 90: maximum concentration of Drug 1 in solution during first 90 minutes; for AUC / Drug Concentration: PBS pH 6.5, 37° C.
Procedure: In vitro dissolution tests were performed to evaluate the performance of the amorphous dispersions of Examples 1-9 relative to the performance of Controls 1 and 2. The dissolution performance of the SDD of Example 1 was evaluated in an in vitro dissolution test using a microcentrifuge method. In this test, 14.4 mg of the SDD of Example 1 was added to a microcentrifuge tube. The tube was placed in a 37° C. sonicating bath, and 1.8 mL phosphate buffered saline (PBS) at pH 6.5 and 290 mOsm/kg was added. The samples were quickly mixed using a vortex mixer for about 60 seconds. The samples were centrifuged at 13,000 G at 37° C. for 1 minute. The resulting supernatant solution was then sampled and diluted 1:6 (by volume) with methanol and then analyzed by high-performance liquid chromatography (HPLC). The contents of the tubes were mixed on the vortex mixer and allowed to stand undisturbed at 37° C. until the next sample was taken. Samples were collected at 4, 10, 20, 40, 90, and 1200 minutes.
The performance of Example Nos. 2-8 was likewise evaluated in in vitro dissolution tests using the same microcentrifuge method described above. The dosage for each of these tests was 2000 μg/ml.
The performance of the amorphous dispersions of Example 9 were tested using the same microcentrifuge method, except that 2.5 grams of the coated beads were added to 50 mL of PBS solution (resulting in a dosage of 2000 μg/mL).
For Controls 1 and 2, in vitro dissolution tests were also performed using the same microcentrifuge method except that 3.6 mg of either crystalline or amorphous Drug 1 was used.
These compositions were evaluated in in vitro dissolution tests using the procedures outlined in Example 10. The quantities of drug and polymer noted above were each added to a microcentrifuge tube, to which was added 1.8 ml of PBS solution. The tube was vortexed immediately after adding the PBS solution.
A coating solution comprising 7.5 wt % HPMCAS-MF dissolved in 92.5 wt % solvent (5 wt % water in acetone) was prepared and spray-coated onto Nu-Core Beads (45/60 mesh), producing a thin coating of the polymer on the surface of the beads resulting in beads containing 12.2 wt % HPMCAS-MF. Samples of these beads (2.4 gm) were then mixed with 100 mg of amorphous Drug 1 (resulting in a drug:polymer ratio of 1:3 or 25 wt % Drug 1) and evaluated in an in vitro dissolution test using the procedures outlined in Example 10.
A composition was formed by blending 50 wt % of the SDD of Example 2 (containing 50 wt % Drug 1 and 50 wt % HPMCAS-MF) with 50 wt % HPMCAS-MF. This composition was evaluated in a dissolution test as described in Example 10.

[2] = in vitro dissolution test, microcentrifuge method, model fasted duodenal solution (Drug 2 compositions); format: physicochemical; parameters: AUC: concentration or dose not given beside the values; conditions: for AUC90: aqueous area under the curve after 90 minutes; for AUC90 / C1200 / Cmax, 90 / AUC: MFDS; for AUC90 / C1200 / Cmax, 90: dosage 1000 μg/mL; for C1200: concentration at 1200 minutes; for Cmax, 90: maximum concentration of Drug 2 in solution during first 90 minutes; for Drug Concentration: MFDS pH 6.5, 37° C.
Procedure: In vitro dissolution tests were performed to evaluate the performance of the amorphous dispersions of Examples 12-17 relative to the performance of Controls 4 and 5. The SDD of Example 12 was evaluated in an in vitro dissolution test using a microcentrifuge method. In this test, 3600 μg of the SDD of Example 12 was added to a microcentrifuge tube. The tube was placed in a 37° C. sonicating bath, and 1.8 mL of model fasted duodenal solution (MFDS), comprising phosphate buffered saline with 14.7 mM sodium taurocholic acid and 2.8 mM of 1-palmitoyl-2-oleyl-sn-glycero-3-phosphocholine, pH 6.5, 290 mOsm/kg, was added. […] The samples were quickly mixed using a vortex mixer for about 60 seconds. The samples were centrifuged at 13,000 G at 37° C. for 1 minute. The resulting supernatant solution was then sampled and diluted 1:6 (by volume) with methanol and then analyzed by high-performance liquid chromatography (HPLC). The contents of the tubes were mixed on the vortex mixer and allowed to stand undisturbed at 37° C. until the next sample was taken. Samples were collected at 4, 10, 20, 40, 90, and 1200 minutes.
For Controls 4 and 5, in vitro dissolution tests were performed using the procedures described above except that 1.8 mg of crystalline and amorphous Drug 2 was used, respectively.

| Compound | AUC90 [1] | C1200 [1] [µg/mL] | Cmax, 90 [1] [µg/mL] | AUC ([1]; time 0 min) [µg·min/mL] | Drug Concentration ([1]; time 0 min) [µg/mL] | AUC ([1]; time 4 min) | Drug Concentration ([1]; time 4 min) [µg/mL] | AUC ([1]; time 10 min) | Drug Concentration ([1]; time 10 min) [µg/mL] | AUC ([1]; time 20 min) | Drug Concentration ([1]; time 20 min) [µg/mL] | AUC ([1]; time 40 min) | Drug Concentration ([1]; time 40 min) [µg/mL] | AUC ([1]; time 90 min) | Drug Concentration ([1]; time 90 min) [µg/mL] | AUC ([1]; time 1200 min) | Drug Concentration ([1]; time 1200 min) [µg/mL] | AUC90 [2] | C1200 [2] [µg/mL] | Cmax, 90 [2] [µg/mL] | also measured |
| --- | --- | --- | --- | --- | --- | --- | --- | --- | --- | --- | --- | --- | --- | --- | --- | --- | --- | --- | --- | --- | --- |
| O=C(N[C@@H](Cc1ccccc1)[C@@H](O)C(=O)N1C[C@@H](O)[C@@H](O)C1)c1cc2cc(Cl)ccc2[nH]1 [Control 1] | 12,800 min* μg/mL | 125 | 149 | 0 | 0 | 260 µg·min/mL | 130 | 1,100 min* μg/mL | 149 | 2,500 min* μg/mL | 139 | 5,400 min* μg/mL | 149 | 12,800 min* μg/mL | 147 | 163,800 min* μg/mL | 125 | – | – | – | – |
| O=C(N[C@@H](Cc1ccccc1)[C@@H](O)C(=O)N1C[C@@H](O)[C@@H](O)C1)c1cc2cc(Cl)ccc2[nH]1 [Control 2] | 20,600 min* μg/mL | 203 | 586 | 0 | 0 | 1,200 min* μg/mL | 586 | 4,400 min* μg/mL | 473 | 7,800 min* μg/mL | 220 | 11,700 min* μg/mL | 182 | 20,600 min* μg/mL | 167 | 225,900 min* μg/mL | 203 | – | – | – | AUC ([1]; time 180 min): 35,200 min* μg/mL; Drug Concentration ([1]; time 180 min): 158 µg/mL |
| O=C(N[C@@H](Cc1ccccc1)C(=O)N1CC(O)C1)c1cc2cc(Cl)ccc2[nH]1 [Control 4] | – | – | – | – | – | – | – | – | – | – | – | – | – | – | – | – | – | 5,900 min* μg/mL | 102 | 82 | AUC ([2]; time 0 min): 0 µg·min/mL; Drug Concentration ([2]; time 0 min): 0 µg/mL; AUC ([2]; time 4 min): 90 µg·min/mL; Drug Concentration ([2]; time 4 min): 45 µg/mL; AUC ([2]; time 10 min): 357 µg·min/mL; Drug Concentration ([2]; time 10 min): 44 µg/mL; AUC ([2]; time 20 min): 842 µg·min/mL; Drug Concentration ([2]; time 20 min): 53 µg/mL; AUC ([2]; time 40 min): 2,100 min* μg/mL; Drug Concentration ([2]; time 40 min): 72 µg/mL; AUC ([2]; time 90 min): 5,900 min* μg/mL; Drug Concentration ([2]; time 90 min): 82 µg/mL; AUC ([2]; time 1200 min): 108,100 min* μg/mL; Drug Concentration ([2]; time 1200 min): 102 µg/mL |
| O=C(N[C@@H](Cc1ccccc1)C(=O)N1CC(O)C1)c1cc2cc(Cl)ccc2[nH]1 [Control 5] | – | – | – | – | – | – | – | – | – | – | – | – | – | – | – | – | – | 20,800 min* μg/mL | 370 | 268 | AUC ([2]; time 0 min): 0 µg·min/mL; Drug Concentration ([2]; time 0 min): 0 µg/mL; AUC ([2]; time 4 min): 302 µg·min/mL; Drug Concentration ([2]; time 4 min): 151 µg/mL; AUC ([2]; time 10 min): 1,400 min* μg/mL; Drug Concentration ([2]; time 10 min): 203 µg/mL; AUC ([2]; time 20 min): 3,500 min* μg/mL; Drug Concentration ([2]; time 20 min): 225 µg/mL; AUC ([2]; time 40 min): 8,100 min* μg/mL; Drug Concentration ([2]; time 40 min): 238 µg/mL; AUC ([2]; time 90 min): 20,800 min* μg/mL; Drug Concentration ([2]; time 90 min): 268 µg/mL; AUC ([2]; time 1200 min): 374,900 min* μg/mL; Drug Concentration ([2]; time 1200 min): 370 µg/mL |
